Data: article PMC12022909, “A Multicomponent Reaction-Based Platform Opens New Avenues in Aryl Hydrocarbon Receptor Modulation” (ACS Central Science, 2025)

System: IL-19, CXCL1, and CCL26 gene expression
Assay: IL-13 triggered proinflammatory gene expression in HaCaT keratinocytes
Assay type: cell-based, human
Conditions: IL-13 10 ng/mL
Excerpt: As AhR activation is beneficial for pathologies including chronic inflammatory skin diseases,[74] we assessed the potential anti-inflammatory role of our ligands by cotreating HaCaT keratinocytes with the proinflammatory cytokine IL-13 and a selection of 6-ICZs (Figure 7a).
Figure 7 Anti-inflammatory effect of the 6-ICZs. (a) Structure of the tested compounds and the control tapinarof (T). (b) IL-13 triggered gene expression of proinflammatory IL-19, CXCL1, and CCL26 expressed as fold of 0.1% DMSO control. HaCaT keratinocytes were treated with IL-13 (10 ng/mL) for 24 h, then either untreated (−) or treated with positive control T (1 μM) or 6-ICZs (1 μM). n = 3–4. For statistical analysis an unpaired t-test was performed and data are shown as mean ± SEM (*, p ≤ 0.05 compared to IL-13 (10 ng/mL)).
Cell culture and treatment
Human HaCaT and HaCaT-AhR-deficient keratinocytes were cultured in DMEM low glucose (1 g/l) medium (PAN Biotech, Aidenbach, Germany) supplemented with 10% (v/v) fetal bovine serum (PAN Biotech) and 1% (v/v) antibiotics/antimycotics (PAN Biotech). […]
Quantitative real-time PCR
The isolation of total RNA, reverse transcription, and quantitative real-time PCR was conducted as described previously.[26] […]
AhR-dependent reporter gene activity was determined in human HepG2 cells stably transfected with an XRE -harboring luciferase plasmid (XRE-HepG2 cells). […]

Compound: CCOc1c2[nH]c3ccccc3c2cc2[nH]c3ccccc3c12 [compound 8, 6-ethoxy-ICZ]
- anti-inflammatory potency compared with positive control tapinarof (1 μM): slightly more potent than the positive control tapinarof
- IL-13-triggered induction of IL-19, CXCL1, and CCL26 gene expression (24 h, compound 1 μM): significantly reduced
